Data published in patent US10634665B2 (priority 2014, dated 2020).

Tested on: BEAS-2B epithelium
Assay: Drug toxicity test in bronchiolar device (LDH release)
Format: cell-based
Settings: 0.1, 1.0 and 10 μM in BEGM medium, recirculating 10 μL/min, 48 hours, bronchiolar device of FIG. 27; FIG. 95A
Protocol: FIGS. 95A-95D show drug toxicity results obtained from using a bronchiolar device embodiment described herein; FIG. 95A is a graph of camptothecin concentration (μM) vs. cytotoxicity (% LDH release) illustrating the cytotoxicity of camptothecin as measured after having passed through the bronchiolar device; […] show images of fluorescent microbead deposition on a central lumen associated with cells.
Drug toxicity was tested using a bronchiolar device as described herein. A pro-apoptotic anti-cancer drug, camptothecin, was chosen to monitor drug toxicity in the bronchiolar device illustrated in FIG. 27. Different concentrations of camptothecin (0.1, 1.0 and 10 μM) were prepared by diluting the original stock solution (2 mg/mL in DMSO) with BEGM culturing medium. After the lumen of a hollow tube of the device was covered with BEAS-2B epithelium, medium in the medium reservoir (which was connected to a maintaining system) was replaced with individual concentrations of the camptothecin medium solution to allow the circulating flow into medium chamber of device. The tubing connected to hollow tube was closed and the recirculating flow rate was set to 10 μL/min to allow camptothecin to diffuse into the bronchiolar epithelium for 48 hours.

CC[C@@]1(O)C(=O)OCc2c1cc1n(c2=O)Cc2cc3ccccc3nc2-1 [camptothecin]
cytotoxicity (% LDH release) versus camptothecin concentration: drug dose dependence was observed
